Results as given in paper PMC3017119, “Structural Basis for the Recognition of Cellular mRNA Export Factor REF by Herpes Viral Proteins HSV-1 ICP27 and HVS ORF57” (PLoS Pathogens, 2011).
Where no end group is shown, it is not given here.

These substances were tested on REF^156–218 (REF2-I C-terminal domain) (assay: NMR 1H-15N correlation spectra of 15N-labelled REF^156–218 with added viral protein constructs). Settings: 2-fold excess of viral construct; 15N-HSQC.
Type: binding, murine

Row | Substance | Changes in 1H-15N correlation spectra of 15N-REF^156–218 upon addition
1 | …SCKTSWADRVREAAAQRR [HVS ORF57^8–120, recombinant fragment aa 8–120 of Herpesvirus saimiri ORF57, with T7 and poly-His tags] | No significant changes

These substances were tested on GST-REF2-I (assay: GST-REF2-I pull down of 35S-radiolabelled ICP27 fragments). Settings: 35S-radiolabelled protein from rabbit reticulocytes, glutathione beads, RB100 buffer pH 7.5, 10 µg/ml RNAse A; SDS-PAGE, PhosphoImage.
Type: binding, murine
Source text: To confirm the position of REF-binding domains within ICP27 and ORF57 and to minimise the size of constructs for more detailed NMR mapping, a series of fragments derived from HSV-1 ICP27 were screened for binding to GST-REF2-I using pull down assays (Fig. 1). […] The REF-binding fragment of ORF57 aa 8–120 identified previously similarly interacted with the same fragments of REF (Fig. 1D).
Figure 1 Identification of regions for the interactions between REF and ICP27/ORF57. (A) Subdivision of ICP27, ORF57 and REF2-I in fragments. […] (C) Fusion of the ICP27^103–138 peptide to GST allows a specific pull down of REF, REF^1–155 (NM) and REF^54–155 (Δ53) and a very weak pull down of the REF^1–70 (N); no interaction is detected with the control Ras protein. (D) Same pull down assay as panel C but using GST fusion of ORF57 aa 8–120 in place of ICP27.
GST or GST protein fusions were first immobilised on 30 µl slurry glutathione-coated beads (GE Healthcare) before 8 µl ^35S-radiolabelled proteins synthesised in rabbit reticulocytes (Promega) were added to the binding reactions in RB100 buffer (25 mM HEPES pH 7.5/100 mM KOAc/10 mM MgCl2/1 mM DTT/0.05% Triton X-100/10% glycerol) in presence of 10 µg/ml RNAse A. Washed and eluted protein complexes were resolved on 15% SDS-PAGE stained with Coomassie blue and analysed by PhosphoImage. […]

Row | Substance | Binding to GST-REF2-I in pull down
2 | ICP27^1–103: fragment aa 1–103 of HSV-1 ICP27 | no binding
3 | ICP27^139–512: fragment aa 139–512 of HSV-1 ICP27 | no binding

These substances were tested against T1, REF^54–155 (REF2-I RRM domain) (Mus musculus, UniProt Q9JJW6) (assay: NMR chemical shift titration of 15N-REF^54–155 with viral peptides (dissociation constants)). Settings: not given.
T1 construct: made in house
Type: binding, murine
Protocol: A separate titration of each peptide was carried out under the same sample conditions. Increasing amounts of peptide were added to a ^15N-REF^54–155 sample, achieving binding saturation whenever possible. Throughout these titrations amide chemical shift changes were monitored to assess the relative binding affinity of these peptides for REF and simultaneously map their binding sites. Estimates of dissociation constants were obtained for each peptide, and for the longer viral adaptor fragments (Table 2). […] A reduction in affinity was more pronounced in the L108A mutant, with the R107A mutation virtually abolishing the binding. […] This agrees with the NMR mapping data that a longer sequence from ORF57 (residues 103–120) is involved in REF binding. […] These latter two viral adaptors lack the signature Trp residue, and additionally in KSHV-ORF57 the Arg within the triad is replaced by Lys. As a further control, we also checked if binding of the viral peptides is specific to the RRM domain of REF, or if it can occur with RRMs of other proteins as well. The proteins SF2 [37] and 9G8 [38] bind TAP/p15 and have roles in splicing and mRNA export somewhat similar to that of REF/Aly. They also contain an RRM domain and are therefore structurally homologous to REF/Aly. To test if the same ICP27 motif could interact with these RRM domains, we added a 5-fold excess of WT ICP27^103–112 peptide to ^15N-labelled SF2 [37] and 9G8 [38]. […] These experiments confirmed that the recognition of the REF RRM domain by viral adaptor proteins is highly specific, and the isolated peptides ICP27^103–112, ICP27^103–110 and ORF57^103–120 are able to bind REF as efficiently as longer fragments of these viral proteins.
All experiments were carried out at 30°C on Bruker DRX600, DRX700 and Varian Inova 800 MHz spectrometers equipped with cryoprobes. The weighted chemical shift changes of amide signals δCS caused by complex formation were measured as [drawing 1] , where Δδ^H and Δδ^N were changes in proton and nitrogen chemical shifts, respectively. Standard triple-resonance experiments were used to assign spectra of ICP27^103–138, ORF57^8–120 and REF^54–155 in their free and bound states. Additionally, carbon-detection experiments (CON, CaCO, CbCaCO, CbCaCO(N), CbCaNCO) were used as an aid to the ORF57 assignment. Spectra were processed using NMRpipe and Topspin 2.1 (Bruker) and analysed using Sparky (University of California). Distance restraints obtained from 3D ^15N- and ^13C edited NOESY-HSQC experiments (τm 120 ms) and dihedral restraints from TALOS [51] were used in structure calculations by CYANA [52]. Additionally, intermolecular contacts were unambiguously identified using ^13C edited, ^12C-filtered NOESY-HSQC (τm 150 ms) spectra acquired on Varian Inova 800 MHz spectrometer. In this experiment only NOE crosspeaks between ^1H-^13C moieties of ^13C,^15N-labelled REF and ^1H(^12C) of unlabelled ICP27 peptide were observed, [54]. A final ensemble contained 20 structures with lowest target function values. Images were generated using Pymol (DeLano Scientific). For the REF - ICP27 complex, structure coordinates and experimental constraints have been deposited into the Protein Data Bank and chemical shifts in the BioMagResBank (access numbers 2kt5 and bmr16683 respectively). Other chemical shift assignments deposited in the BioMagResBank are: free ICP27^103–138 bmr16696, free REF^54–155 bmr16697, and ORF57^8–120 bmr16698 (both free and bound to REF^54–155).
Unlabelled synthetic peptides were obtained from Peptide Protein Research Ltd (UK). The synthetic peptide sequences used were from Varicella-zoster virus ORF4^108–119 (AAY57694), Kaposi's sarcoma-associated herpesvirus ORF57^100–110 (YP_001129410), Herpesvirus Saimiri ORF57^103–120 & 105–115 (CAC84353), Herpes simplex virus 1 ICP27^103–110 & 103–112 (AAF43147). […]

Row | Substance | Kd
4 | KTSWADRVREA [HVS ORF57^105–115] | > 1000 µM
5 | NRYGKKIKFGT [KSHV ORF57^100–110, reference compound] | > 100000 µM
6 | SCKTSAADRVREAAAQRR [HVS ORF57^103–120 W108A] | > 7500 µM
7 | SCKTSWADAVREAAAQRR [HVS ORF57^103–120 R111A] | 254 ± 50 µM
8 | SCKTSWADRAREAAAQRR [HVS ORF57^103–120 V112A] | 156 ± 32 µM
9 | SVASRLGARR [ICP27^103–112 W105A] | 550 ± 210 µM
10 | SVWSALGARR [ICP27^103–112 R107A] | > 10000 µM
11 | SVWSRAGARR [ICP27^103–112 L108A] | > 5000 µM
12 | TGYARIERGHRR [VZV ORF4^108–119] | > 1000 µM

Same assay, conditions: chemical shift changes in 1H-15N correlation spectra of 100 µM 15N-REF^54–155 versus increasing peptide concentration, fitted to standard equation; 30°C; NMR buffer 20 mM phosphate, 50 mM NaCl, 50 mM L-Arg/L-Glu/β-mercaptoethanol, 10 mM EDTA, pH 6.2; read-out: K D

Row | Substance | Kd
13 | …SCKTSWADRVREAAAQRR [HVS ORF57^8–120, recombinant fragment aa 8–120 of Herpesvirus saimiri ORF57, with T7 and poly-His tags] | 78 ± 12 µM
